Source: US20240199647A1, “ANTI-VIRAL COMPOUNDS” (Aligos Therapeutics, Inc., priority 2022, published 2024)
Like-named read-outs stand apart in the source and are kept apart here.

How the values were obtained:
SARS-Cov-2 3CLpro = SARS-Cov-2 3CLpro (Severe acute respiratory syndrome coronavirus 2, UniProt P0DTD1); assay: biochemical; conditions: Table A, read-out: SARS-Cov-2 (IC50)
[1] = Cytotoxicity in HeLa cells without addition of OC43 virus (in parallel); conditions: human, HeLa cells, without OC43 virus
[2] = system: human beta-coronavirus OC43; assay: OC43 Coronavirus Assay in HeLa cells (antiviral, cytopathic effect, cell-titer-glo); assay type: cell-based; conditions: Betacoronavirus 1, OC43, HeLa, Table B, OC43 coronavirus in HeLa cells, read-out: EC50
in vitro = conditions: human
[3] = system: SARS-CoV-2 B.1.1.7 lineage; assay: microbe, parasite or virus in culture; assay type: cell-based; conditions: Severe acute respiratory syndrome coronavirus 2, Table C, SARS-CoV-2 B.1.1.7 in A549-dual_ACE2_TMPRSS2 cells, read-out: A549-dual_ACE2_TMPRSS2 (EC50)

| Compound | IC50 (SARS-Cov-2 3CLpro; class symbols) [nM] | CC50 at 6 days [1] [nM] | EC50 ([2]; class symbols) [nM] | CC50 (in vitro) [nM] | EC50 ([2]; cells given as a bound) [nM] | EC50 ([3]; class symbols) [nM] | EC50 ([3]; cells given as a bound) [nM] | IC50 (SARS-Cov-2 3CLpro; cells given as a bound) [nM] |
| --- | --- | --- | --- | --- | --- | --- | --- | --- |
| CC1NC(=O)[C@]2(C[C@@H](C#N)N(C(=O)[C@H](CC3CC3)N(C)C(=O)[C@H](CC3CC3)NC(=O)C(F)(F)F)C2)Oc2ccccc21 (single isomer, unassigned) [Compound 223, (S)—N—((S)-1-((2R,5S*,5'S)-5′-cyano-5-methyl-3-oxo-4,5-dihydro-3H-spiro[benzo[f][1,4]oxazepine-2,3′-pyrrolidin]-1′-yl)-3-cyclopropyl-1-oxopropan-2-yl)-3-cyclopropyl-N-methyl-2-(2,2,2-trifluoroacetamido)propanamide] | 20 to 200 | > 10000 | 100 to 1000 | – | – | – | – | – |
| COC(=O)N[C@@H](CC1CC1)C(=O)N(C)[C@@H](CC1CC1)C(=O)N1C[C@@]2(C[C@H]1C#N)Oc1cc(F)cc(F)c1NC2=O [Compound 75] | – | > 10000 | – | > 1000 | > 10000 | < 100 | – | – |
| CN(C(=O)[C@H](CC1CC1)NC(=O)C1(F)CC1)[C@@H](CC1CC1)C(=O)N1C[C@@]2(C[C@H]1C#N)Oc1cc(F)cc(F)c1NC2=O [Compound 76] | – | > 10000 | < 100 | > 1000 | – | < 100 | – | – |
| CN(C(=O)[C@H](CC1CC1)NC(=O)c1ccc(F)cc1)[C@@H](CC1CC1)C(=O)N1C[C@@]2(C[C@H]1C#N)Oc1cc(F)cc(F)c1NC2=O [Compound 77] | – | > 10000 | < 100 | > 1000 | – | < 100 | – | – |
| N#C[C@@H]1C[C@]2(CN1C(=O)[C@H](CC1CC1)NC(=O)[C@H](CC1CC1)NC(=O)C(F)(F)F)Oc1cc(F)cc(F)c1NC2=O [Compound 78] | – | > 10000 | 100 to 1000 | > 1000 | – | 100 to 1000 | – | – |
| CN(C(=O)c1cnn(-c2ccccc2C(F)(F)F)c1)[C@@H](CC1CC1)C(=O)N1C[C@@]2(C[C@H]1C#N)Oc1cc(F)cc(F)c1NC2=O [Compound 79] | – | > 10000 | < 100 | > 1000 | – | 100 to 1000 | – | – |
| CC(C)C[C@@H](C(=O)N1C[C@]2(C[C@H]1C#N)C(=O)Nc1ccccc1C2(C)O)N(C)C(=O)[C@H](C)NC(=O)C(F)(F)F (stereo partly drawn) [Compound 80] | 200 to 2000 | > 10000 | < 100 | – | – | – | – | – |
| CN(C(=O)[C@H](CC1CC1)NC(=O)C(F)(F)F)[C@@H](CC1CC1)C(=O)N1C[C@@]2(C[C@H]1C#N)Oc1ncccc1NC2=O [Compound 91] | < 20 | > 10000 | < 100 | – | – | – | – | – |
| COc1cccc2[nH]c(C(=O)N(C)[C@@H](CC3CC3)C(=O)N3C[C@@]4(C[C@H]3C#N)Oc3cc(F)cc(F)c3NC4=O)cc12 [Compound 134] | < 20 | – | – | > 1000 | > 10000 | – | > 1000 | – |
| CN(C(=O)[C@@H](Cc1ccncc1)NC(=O)C(F)(F)F)[C@@H](CC1CC1)C(=O)N1C[C@@]2(C[C@H]1C#N)Oc1cccnc1NC2=O [Compound 148] | < 20 | – | – | > 1000 | – | – | > 1000 | – |
| CN(C(=O)[C@@H](Cc1cccnc1)NC(=O)C(F)(F)F)[C@@H](CC1CC1)C(=O)N1C[C@@]2(C[C@H]1C#N)Oc1cccnc1NC2=O [Compound 151] | < 20 | – | – | > 1000 | – | 100 to 1000 | – | – |
| COc1cccc(C[C@@H](NC(=O)C(F)(F)F)C(=O)N(C)[C@@H](CC2CC2)C(=O)N2C[C@@]3(C[C@H]2C#N)Oc2cccnc2NC3=O)c1 [Compound 152] | < 20 | – | – | > 1000 | – | < 100 | – | – |
| CN(C(=O)[C@@H]1CC[C@@H](c2ccccc2)N1C)[C@@H](CC1CC1)C(=O)N1C[C@@]2(C[C@H]1C#N)Oc1cc(F)cc(F)c1NC2=O [Compound 153] | 20 to 200 | – | – | > 1000 | – | 100 to 1000 | – | – |
| CN(C(=O)[C@H](CC1CC1)NC(=O)c1ccc(F)cc1)[C@@H](CC1CC1)C(=O)N1C[C@@]2(C[C@H]1C#N)Oc1ccccc1CNC2=O [Compound 161] | < 20 | – | – | > 1000 | – | < 100 | – | – |
| CN(C(=O)[C@H](CC1CC1)NC(=O)C(F)(F)C(F)(F)F)[C@@H](CC1CC1)C(=O)N1C[C@@]2(C[C@H]1C#N)Oc1ccccc1CNC2=O [Compound 162] | < 20 | – | – | > 1000 | – | < 100 | – | – |
| C[C@H](NC(=O)C(F)(F)F)C(=O)N[C@@H](CC1CC1)C(=O)N1C[C@@]2(C[C@H]1C#N)Oc1cccnc1NC2=O [Compound 180] | 200 to 2000 | – | – | > 1000 | – | – | > 1000 | – |

| Compound | IC50 (SARS-Cov-2 3CLpro; class symbols) [nM] | CC50 at 6 days [1] [nM] | EC50 ([2]; class symbols) [nM] | CC50 (in vitro) [nM] | EC50 ([2]; cells given as a bound) [nM] | EC50 ([3]; class symbols) [nM] | EC50 ([3]; cells given as a bound) [nM] | IC50 (SARS-Cov-2 3CLpro; cells given as a bound) [nM] |
| --- | --- | --- | --- | --- | --- | --- | --- | --- |
| CN(C(=O)c1nnc(-c2ccccc2)[nH]1)[C@@H](CC1CC1)C(=O)N1C[C@@]2(C[C@H]1C#N)Oc1cccnc1NC2=O [Compound 210] | 200 to 2000 | – | – | > 1000 | – | – | > 1000 | – |
| CN(C(=O)c1cnc(-c2ccccc2)[nH]1)[C@@H](CC1CC1)C(=O)N1C[C@@]2(C[C@H]1C#N)Oc1cccnc1NC2=O [Compound 211] | 20 to 200 | – | – | > 1000 | – | 100 to 1000 | – | – |
| C[C@H](NC(=O)C1(C)CCC1)C(=O)N(C)[C@@H](CC1CC1)C(=O)N1C[C@@]2(C[C@H]1C#N)Oc1cccnc1NC2=O [Compound 212] | < 20 | – | – | > 1000 | – | 100 to 1000 | – | – |
| C[C@H](NC(=O)C12CC(C1)C2)C(=O)N(C)[C@@H](CC1CC1)C(=O)N1C[C@@]2(C[C@H]1C#N)Oc1cccnc1NC2=O [Compound 216] | < 20 | – | – | > 1000 | – | 100 to 1000 | – | – |
| CN(C(=O)[C@@H](NC(=O)C(F)(F)F)C12CC(C1)C2)[C@@H](CC1CC1)C(=O)N1C[C@@]2(C[C@H]1C#N)Oc1cccnc1NC2=O [Compound 217] | < 20 | – | – | > 1000 | – | 100 to 1000 | – | – |
| CN(C(=O)[C@@H](NC(=O)C(F)(F)F)C1CCCC1)[C@@H](CC1CC1)C(=O)N1C[C@@]2(C[C@H]1C#N)Oc1cccnc1NC2=O [Compound 218] | < 20 | – | – | > 1000 | – | < 100 | – | – |
| CN(C(=O)[C@H](CCCCN)NC(=O)C(F)(F)F)[C@@H](CC1CC1)C(=O)N1C[C@@]2(C[C@H]1C#N)Oc1cccnc1NC2=O [Compound 221] | < 20 | > 10000 | – | – | > 10000 | – | – | – |
| C[C@H](Nc1ncnc2ccccc12)C(=O)N(C)[C@@H](CC1CC1)C(=O)N1C[C@@]2(C[C@H]1C#N)Oc1cccnc1NC2=O [Compound 230] | < 20 | > 10000 | 100 to 1000 | – | – | – | – | – |
| CN(C(=O)c1ccc(=O)[nH]n1)[C@@H](CC1CC1)C(=O)N1C[C@@]2(C[C@H]1C#N)Oc1cccnc1NC2=O [Compound 231] | – | > 10000 | – | – | > 10000 | – | – | > 2000 |
| Cc1ccc(C(=O)N(C)[C@@H](CC2CC2)C(=O)N2C[C@@]3(C[C@H]2C#N)Oc2cccnc2NC3=O)[nH]c1=O [Compound 232] | 200 to 2000 | > 10000 | – | – | > 10000 | – | – | – |
| CC(C)C[C@@H](C(=O)N1CC2(C[C@H]1C#N)C(=O)Nc1ccnn12)N(C)C(=O)[C@H](C)NC(=O)C(F)(F)F (stereo partly drawn) [Example 7, (2S)—N-[(2S)-1-[(5'S)-5′-cyano-2-oxo-1H-spiro[pyrazolo[1,5-a]imidazole-3,3′-pyrrolidin]-1′-yl]-4-methyl-1-oxopentan-2-yl]-N-methyl-2-(2,2,2-trifluoroacetamido)propanamide] | 20 to 200 | – | – | > 1000 | – | 1000 to 10000 | – | – |
| CC(C)C[C@@H](C(=O)N1C[C@]2(CC(C(C)C)NC2=O)C[C@H]1C#N)N(C)C(=O)[C@H](C)NC(=O)C(F)(F)F (stereo partly drawn) [Example 38] | < 20 | – | – | > 1000 | – | 100 to 1000 | – | – |
| CN(C(=O)[C@H](CC1CC1)NC(=O)C(F)(F)F)[C@@H](CC1CC1)C(=O)N1C[C@@]2(C[C@H]1C#N)Sc1ccccc1NC2=O [Example 39, (S)—N—((S)-1-((2R,5'S)-5′-cyano-3-oxo-3,4-dihydrospiro[benzo[b][1,4]thiazine-2,3′-pyrrolidin]-1′-yl)-3-cyclopropyl-1-oxopropan-2-yl)-3-cyclopropyl-N-methyl-2-(2,2,2-trifluoroacetamido)propanamide] | < 20 | – | – | > 1000 | – | < 100 | – | – |
| CC(C)C[C@@H](C(=O)N1CC2(C[C@H]1C#N)Cn1nccc1NC2=O)N(C)C(=O)[C@H](C)NC(=O)C(F)(F)F (stereo partly drawn) [Example 40, (2S)—N-((2S)-1-((5'S)-5′-cyano-5-oxo-4,5-dihydro-7H-spiro[pyrazolo[1,5-a]pyrimidine-6,3′-pyrrolidin]-1′-yl)-4-methyl-1-oxopentan-2-yl)-N-methyl-2-(2,2,2-trifluoroacetamido)propanamide] | 200 to 2000 | – | – | > 1000 | – | – | > 1000 | – |
| CC(C)C[C@@H](C(=O)N1CC2(C[C@H]1C#N)Cn1nc(Br)cc1NC2=O)N(C)C(=O)[C@H](C)NC(=O)C(F)(F)F (stereo partly drawn) [Example 41, (2S)—N-((2S)-1-((5'S)-2-bromo-5′-cyano-5-oxo-4,5-dihydro-7H-spiro[pyrazolo[1,5-a]pyrimidine-6,3′-pyrrolidin]-1′-yl)-4-methyl-1-oxopentan-2-yl)-N-methyl-2-(2,2,2-trifluoroacetamido)propanamide] | 200 to 2000 | – | – | > 1000 | – | – | > 1000 | – |
